Source: PMC7961786, “Magic Peptide: Unique Properties of the LRR11 Peptide in the Activation of Leukotriene Synthesis in Human Neutrophils” (International Journal of Molecular Sciences, 2021)

What was measured:
PMNLs [1] = experiment: Neutrophil adhesion to fibrinogen-coated plates; assay type: cell-based, human; details: 1 µM ODN +/- 1 µM LRR11, 20 min, 37 °C, n = 3, Figure S2a
Experimental: Figure S2a. Effects of ODNs and LRR11 peptide on neutrophil adhesiveness. PMNLs (10^6 cells/probe in HBSS/HEPES) supplemented with 1 µM ODN +/- 1 µM LRR11, except for control samples containing HBSS/HEPES instead of ODNs, were incubated in fibrinogen-coated 24-well plates for 20 min at 37 °C in 5 % CO2. The supernatants were then carefully removed, and wells were washed twice with warm PBS to remove unattached cells. Adhesion quantitative assessment was carried out as described in [59]. Briefly, hydrogen peroxide (4 mM final concentration) in permeabilizing buffer (67 mM Na2HPO4, 35 mM citric acid, 0.1% Triton X-100) supplemented with 5.5 mM ortho-phenylenediamine was added to the attached PMNLs for 5 min. The reaction was stopped by adding of 1M H2SO4, followed by recording the absorption values at 492 nm and comparing them with the calibration values. Data are means ± SEM of attached cells amounts, as the percentages of PMNLs initially contained in the samples (n=3; *p < 0.05; **p < 0.01 in comparison with corresponding controls, as indicated by two-way ANOVA followed by Dunnett’s multiple comparison test). […]

NeutrAvidin = experiment: TSM acoustic biosensor, unspecific binding to NeutrAvidin in the absence of ODNs
Description: To characterize the interaction of the studied synthetic ODNs with the LRR11 peptide, we applied the thickness shear mode (TSM) acoustic biosensor method, which is based on the investigation of ultrasonic waves in piezoelectric materials such as AT-cut quartz. This approach involved immobilizing a 5′-biotinylated ODN on the surface of TSM transducer covered by NeutrAvidin and then adding the LRR11 peptide. An unrelated peptide (URP) with a random primary structure ([…]) was used as a negative control. The measurement procedure was divided into several steps, in which each immobilization stage was followed by washing with an appropriate buffer solution; when peptide solutions at different concentrations (from 1 to 100 nM) were added to the surface-modified TSM transducer, a wash with Hanks buffer was used before increasing the peptide concentration.
Eight MHz AT-cut piezoelectric quartz crystal transducer was obtained from CH Instruments, Austin, TX, USA. The transducer was covered on both sides with thin layers of gold that served as electrodes (working area 0.2 cm^2). Prior ODNs immobilization, the crystal was carefully cleaned with basic Piranha solution (29% NH3, 30% H2O and H2O2 with volumetric 1:5:1 ratio, respectively) for 25 min. After the thorough cleaning, the crystal was positioned between two silicon O-rings in a flow-through cell. […]

PMNLs [2] = experiment: Phagocytosis of FITC-labeled S. typhimurium by neutrophils; assay type: cell-based, human; details: 1 µM ODN +/- 1 µM LRR11, FITC-labeled S. typhimurium 20 min; n = 3; Figure S2b
Experimental: Figure S2b. Influence of LRR11 and ODNs on phagocytic activity of neutrophils. PMNLs supplemented with 1 µM ODN +/- 1 µM LRR11, except for control samples containing HBSS/HEPES instead of ODNs, were incubated for 20 min in Eppendorf tubes at 37 °C in 5% CO2 with continuous stirring. FITC-labeled S. typhimurium were then added for next 20 min, followed by FACS analysis (excitation: 488 nm, emission: 525 nm). Both the relative amounts of PMNLs involved in phagocytosis (A, B) and the fluorescence intensities, reflecting the average number of bacteria captured per cell (C, D), were estimated. To distinguish between internalized and surface-bound bacterial cells, trypan blue at a working concentration of 1 mg/ml, was used to quench the surface FITC fluorescence caused by the attached bacteria. Thus, each series of samples was duplicated to obtain results both without (A, C) and with (B, D) TB quenching, which corresponds to the total interaction and uptake of bacteria. Averaged flow cytometry data are presented, including means ± SEM for the percentages of FITC-positive (i.e., phagocytic) cells (A, B), and mean ± SEM for fluorescence intensities of FITC-positive subpopulations (C, D) (n=3; * p < 0.05; ** p < 0.01 in comparison with corresponding controls, ns – non significant, as indicated by two-way ANOVA followed by Dunnett’s or Tukey’s multiple comparison tests). […]

Question: For “QLRKLNLSFNYQKRVSFAHLSLAPSFGSLV [LRR11, 30 amino acid peptide from leucine-rich repeat of TLR9]”, which “effect on PMNL adhesion” value (PMNLs [1]) is on record?
Answer: LRR11 did not affect this

Question: What about the “unspecific binding to NeutrAvidin” value (NeutrAvidin) of the same sequence?
Answer: no unspecific biding

Question: What about the “effect on bacteria engulfment” value (PMNLs [2]) of the same sequence?
Answer: LRR11 did not affect this
